Assay results published in US12692322B2, “KRAS specific antibodies and uses thereof” (Genentech, Inc., priority 2020, dated 2026).

Legend:
[1] = molecular target: T1, alkylated KRas^G12C in H1171 KRas^G12C cells (Homo sapiens, UniProt P01116, G12C); experiment: Immunofluorescence and high content imaging; format: cell-based; conditions: treatment for 16 hours
T1 construct: Immunoprecipitation of alkylated and un-alkylated KRas^G12C in H1171 KRAS^G12C mutant cancer cells; endogenous in cells; host or cells: H1171 (HCC1171) KRAS G12C mutant cancer cells
Method: Immunofluorescence and High Content Imaging Cells (20000 to 40000 cells per well depending on the cell line) were seeded into Poly-L-Lysine Coated 96-well plates (Cell Carrier Ultra; Perkin Elmer) and supplemented with complete medium (RPMI with 2% L-Glutamine and 10% FBS). The next day, cells were treated with KRas^G12C inhibitors at indicated concentrations and incubated for the indicated length of time. At the end of treatment, cells were washed twice with cold 1×PBS, fixed with 3% paraformaldehyde for 20 minutes at room temperature, washed for 10 minutes with 1×PBS, and the PFA was quenched with 50 mM NH4Cl for 10 minutes at room temperature. Cells were washed again with 1×PBS twice for 5 minutes, then permeabilized with 1× Perm/Wash Buffer (BD, Fisher Scientific) for 20 minutes at room temperature. Cells were then incubated with primary antibody diluted in Perm/Wash buffer at indicated concentration for 2 hours at room temperature. Cells were then washed three times with Perm/Wash buffer for 10 minutes each, and the incubated with conjugated fluorescence secondary antibody for 20 to 60 minutes (Alexa488 anti-human and Alexa647 anti-rabbit or anti-rat at 1:500 from Jackson ImmunoResearch Laboratories Inc.) 100 ml of 300 nM DAPI was added to each well for 15 minutes and then cells were washed twice with Perm/Wash buffer, and once with 1×PBS prior to imaging. […]

[2] = tested on: SWII pocket of KRas^G12C-GDP and KRas^WT-GDP; experiment: SPR of SWII ligands with SWII-blocked reference, with and without 2H11; format: binding, human
Method: Surface plasmon resonance (SPR) experiments with 2H11 anti-KRas antibody. A series S SA (streptavidin) chip was inserted into a Biacore T200 (GE Health Sciences). The instrument was primed into running buffer (50 mM HEPES pH 7.5, 150 mM NaCl, 0.2% (w/v) PEG-3350, 0.1% CM-dextran (w/v), 0.1 mM TCEP, 10 mM MgCl2, 100 nM GDP, and 2% (v/v) DMSO). KRas^G12C was pre-blocked at the 12 position with covalent binding KRas^G12C alkylator was captured to yield 2000-2500 response units (RU) on flow channel 1 (FC1) and FC3 to serve as the reference for KRas^WT and KRas^G12C and allow affinity measurement exclusively at the Switch II (SWII) pocket. KRas^WT or KRas^G12C was captured on FC2 and FC4 within 100 RU of the reference channel capture level and data was collected in FC 2-1, FC 4-3 mode. […] Analyte samples were tested […] in 2-fold dose response with 20-30 second contact time and 30 second dissociation. Data was analyzed in with a 1:1 affinity model in Biacore S200 Evaluation Software 1.0 and figures were made in Scrubber 2 (Biologic Software) (FIG. 5A and FIG. 5B).

| SMILES | alkylation of KRas^G12C by IF and immunoblot analysis [1] | affinity of SWII covalent molecules in the presence versus absence of 2H11 anti-KRas antibody [2] |
| --- | --- | --- |
| C=CC(=O)N1CCN(c2ncnc3c(F)c(-c4c(O)cccc4F)c(Cl)cc23)CC1 (atropisomer, axis not shown) [ARS-1620, (R)-1-(4-(6-chloro-8-fluoro-7-(2-fluoro-6-hydroxyphenyl)quinazolin-4-yl)piperazin-1-yl)prop-2-en-1-one] | almost complete alkylation | greatly enhanced |
| C=CC(=O)N1CCN(c2ncnc3cc(-c4c(C)ccc5[nH]ncc45)c(Cl)cc23)CC1 (atropisomer, axis not shown) [GNE-1952, (R)-1-(4-(6-chloro-7-(5-methyl-TH-indazol-4-yl)quinazolin-4-yl)piperazin-1-yl)prop-2-en-1-one] |  | greatly enhanced |
| C=CC(=O)N1CC(N2CCN(C(=O)CNc3cc(C4(C)CC4)c(Cl)cc3O)CC2)C1 [ARS-853, 1-(3-(4-((4-chloro-2-hydroxy-5-(1-methylcyclopropyl)phenyl)glycyl)piperazin-1-yl)azetidin-1-yl)prop-2-en-1-one] |  | greatly enhanced |
